Measurements taken from PubChem BioAssay (NCI).
Values joined by “and” are separate entries in the source; they are usually repeats but may differ in a detail not shown here. Equal values may be shown once.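 Assay format: 96-well plates, 48-hour exposure. Here, GI50 denotes the concentration required for 50% inhibition of growth. TGI is the concentration that stops growth completely.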

Legend:
Assay in all cases: NCI tumour cell line growth inhibition, 48 h
CAKI-1 renal = system: CAKI-1 renal
HCT-116 colon = system: HCT-116 colon
IGROV1 ovarian = system: IGROV1 ovarian
LOX IMVI melanoma = system: LOX IMVI melanoma
M14 melanoma = system: M14 melanoma
MOLT-4 leukemia = system: MOLT-4 leukemia
NCI-H460 lung = system: NCI-H460 lung
SF-268 CNS = system: SF-268 CNS
SNB-19 CNS = system: SNB-19 CNS
TK-10 renal = system: TK-10 renal

C[Si](C)(C)/C=C/CN1C(=O)CCC1O (stereo not given)
TGI (CAKI-1 renal): > 100 µM
TGI (HCT-116 colon): > 100 µM
TGI (IGROV1 ovarian): > 100 µM
TGI (LOX IMVI melanoma): > 100 µM
TGI (M14 melanoma): > 100 µM
TGI (MOLT-4 leukemia): > 100 µM
TGI (NCI-H460 lung): > 100 µM
TGI (SF-268 CNS): > 100 µM
TGI (SNB-19 CNS): > 100 µM
TGI (TK-10 renal): > 100 µM

CC/C=C\CCC/C=C1/C(=O)C=C[C@@H]1C/C=C\CCCC(=O)O
GI50 (CAKI-1 renal): 3.43 µM
TGI (CAKI-1 renal): 11.9 µM
GI50 (HCT-116 colon): 2.53 µM
TGI (HCT-116 colon): 5.79 µM
GI50 (IGROV1 ovarian): 4.12 µM
TGI (IGROV1 ovarian): 15.9 µM
GI50 (LOX IMVI melanoma): 1.46 µM
TGI (LOX IMVI melanoma): 3.22 µM
GI50 (M14 melanoma): 3.89 µM
TGI (M14 melanoma): 17.3 µM
GI50 (MOLT-4 leukemia): 2.44 µM
TGI (MOLT-4 leukemia): 8.93 µM
GI50 (NCI-H460 lung): 4.49 µM
TGI (NCI-H460 lung): 25.3 µM
GI50 (SF-268 CNS): 5.03 µM
TGI (SF-268 CNS): 22.1 µM
GI50 (SNB-19 CNS): 5.45 µM
TGI (SNB-19 CNS): 20 µM
GI50 (TK-10 renal): 5.04 µM
TGI (TK-10 renal): 17.2 µM

COc1ccc(O)c2c1C(=O)CCCC2=O
TGI (CAKI-1 renal): > 100 µM
TGI (HCT-116 colon): > 100 µM
TGI (IGROV1 ovarian): > 100 µM
TGI (LOX IMVI melanoma): > 100 µM
TGI (M14 melanoma): > 100 µM
TGI (MOLT-4 leukemia): > 100 µM
TGI (NCI-H460 lung): > 100 µM
TGI (SF-268 CNS): > 100 µM
TGI (SNB-19 CNS): > 100 µM
TGI (TK-10 renal): > 100 µM

Oc1c(CN2CCCC2)cc(COCc2ccccc2)c2cccnc12
GI50 (CAKI-1 renal): 0.26 µM
TGI (CAKI-1 renal): 14.2 µM
GI50 (HCT-116 colon): 2.65 µM
TGI (HCT-116 colon): 11 µM
GI50 (IGROV1 ovarian): 3.54 µM
TGI (IGROV1 ovarian): 13.8 µM
GI50 (LOX IMVI melanoma): 0.798 µM
TGI (LOX IMVI melanoma): 5.61 µM
GI50 (M14 melanoma): 1.11 µM
TGI (M14 melanoma): 10.1 µM
GI50 (MOLT-4 leukemia): 2.96 µM
TGI (MOLT-4 leukemia): 11.4 µM
GI50 (NCI-H460 lung): 0.774 µM
TGI (NCI-H460 lung): 11.8 µM
GI50 (SF-268 CNS): 1.99 µM
TGI (SF-268 CNS): 18.5 µM
GI50 (SNB-19 CNS): 3.53 µM
TGI (SNB-19 CNS): 92.4 µM
GI50 (TK-10 renal): 1.84 µM
TGI (TK-10 renal): 22.3 µM

COc1ccc(/C=C\c2cc(OC)c(OC)c(OC)c2)c(NS(=O)(=O)c2ccc(C)cc2)c1O
GI50 (CAKI-1 renal): 0.0938 µM
TGI (CAKI-1 renal): > 100 µM
GI50 (HCT-116 colon): 0.0357 µM
TGI (HCT-116 colon): > 100 µM
GI50 (IGROV1 ovarian): 0.075 µM
TGI (IGROV1 ovarian): > 100 µM
GI50 (LOX IMVI melanoma): 0.0509 µM
TGI (LOX IMVI melanoma): > 100 µM
GI50 (M14 melanoma): 0.0307 µM
TGI (M14 melanoma): > 33.2 µM
GI50 (MOLT-4 leukemia): 0.0421 µM
TGI (MOLT-4 leukemia): > 62.9 µM
GI50 (NCI-H460 lung): 0.0351 µM
TGI (NCI-H460 lung): > 37.9 µM
GI50 (SF-268 CNS): 0.226 µM
TGI (SF-268 CNS): > 91.5 µM
GI50 (SNB-19 CNS): 0.0549 µM
TGI (SNB-19 CNS): > 100 µM
GI50 (TK-10 renal): 3.8 µM
TGI (TK-10 renal): > 100 µM

COc1ccc2c3c(c(OCCCN(C)C)nc2c1)-c1ccc(Cl)cc1C3=O
GI50 (CAKI-1 renal): 11.4 µM
TGI (CAKI-1 renal): 23.6 µM
GI50 (HCT-116 colon): 1.29 µM
TGI (HCT-116 colon): 3.52 µM
GI50 (IGROV1 ovarian): 1.73 µM
TGI (IGROV1 ovarian): 25.9 µM
GI50 (LOX IMVI melanoma): 4.58 µM
TGI (LOX IMVI melanoma): 19.4 µM
GI50 (M14 melanoma): 11.4 µM
TGI (M14 melanoma): 24.2 µM
GI50 (MOLT-4 leukemia): 0.833 µM
TGI (MOLT-4 leukemia): 38.2 µM
GI50 (NCI-H460 lung): 2.26 µM
TGI (NCI-H460 lung): 10.2 µM
GI50 (SF-268 CNS): 6.42 µM
TGI (SF-268 CNS): 21.8 µM
GI50 (SNB-19 CNS): 8.81 µM
TGI (SNB-19 CNS): 28.2 µM
GI50 (TK-10 renal): 5.39 µM
TGI (TK-10 renal): 15.3 µM

Cn1c(=O)c2[nH]c(COc3ccc(C(C)(C)C)cc3)nc2n(C)c1=O
GI50 (CAKI-1 renal): 12 µM
TGI (CAKI-1 renal): > 100 µM
GI50 (HCT-116 colon): 10.2 µM
TGI (HCT-116 colon): > 100 µM
GI50 (IGROV1 ovarian): 14.1 µM
TGI (IGROV1 ovarian): 44.5 µM
GI50 (LOX IMVI melanoma): 19.9 µM
TGI (LOX IMVI melanoma): > 100 µM
GI50 (M14 melanoma): 15 µM
TGI (M14 melanoma): 41.4 µM
GI50 (MOLT-4 leukemia): 3.94 µM
TGI (MOLT-4 leukemia): 31.2 µM
GI50 (NCI-H460 lung): 15.4 µM
TGI (NCI-H460 lung): > 100 µM
GI50 (SF-268 CNS): 14.1 µM
TGI (SF-268 CNS): > 100 µM
GI50 (SNB-19 CNS): 82.3 µM
TGI (SNB-19 CNS): > 100 µM
GI50 (TK-10 renal): 23.9 µM
TGI (TK-10 renal): 99.6 µM

O=c1cccccc1NCCCCNc1cccccc1=O
TGI (CAKI-1 renal): > 100 µM
TGI (HCT-116 colon): > 100 µM
TGI (IGROV1 ovarian): > 100 µM
TGI (LOX IMVI melanoma): > 100 µM
TGI (M14 melanoma): > 100 µM
TGI (MOLT-4 leukemia): > 100 µM
TGI (NCI-H460 lung): > 100 µM
TGI (SF-268 CNS): > 100 µM
TGI (SNB-19 CNS): > 100 µM
TGI (TK-10 renal): > 100 µM

Cc1nc(NC(=O)N2CCC[C@H]2C(N)=O)sc1-c1ccnc(C(C)(C)C(F)(F)F)c1
GI50 (CAKI-1 renal): 2.39 µM and 3.35 µM
TGI (CAKI-1 renal): 17.8 µM and > 10 µM
GI50 (HCT-116 colon): 2.87 µM and 3.48 µM
TGI (HCT-116 colon): > 87.3 µM
GI50 (IGROV1 ovarian): 0.0558 µM and 0.121 µM
TGI (IGROV1 ovarian): 0.483 µM and 0.816 µM
GI50 (LOX IMVI melanoma): 3.36 µM and 2.58 µM
TGI (LOX IMVI melanoma): 22 µM and > 10 µM
GI50 (M14 melanoma): 8.75 µM and > 10 µM
TGI (M14 melanoma): > 82 µM
GI50 (MOLT-4 leukemia): 2.49 µM and 2.94 µM
TGI (MOLT-4 leukemia): 28.2 µM and > 10 µM
GI50 (NCI-H460 lung): 1.36 µM and 2.02 µM
TGI (NCI-H460 lung): > 100 µM
GI50 (SF-268 CNS): 9.71 µM and 9.76 µM
TGI (SF-268 CNS): > 86.5 µM
GI50 (SNB-19 CNS): 8.6 µM and > 10 µM
TGI (SNB-19 CNS): 66.2 µM and > 10 µM
GI50 (TK-10 renal): 1.2 µM and 0.789 µM
TGI (TK-10 renal): 15.8 µM and > 10 µM

CN(C)c1ccc(/C=C/c2ccnc3ccccc23)cc1
GI50 (CAKI-1 renal): 9.68 µM
TGI (CAKI-1 renal): > 100 µM and 45 µM
GI50 (HCT-116 colon): 3.09 µM
TGI (HCT-116 colon): > 100 µM and 13.8 µM
GI50 (IGROV1 ovarian): 5.61 µM
TGI (IGROV1 ovarian): > 100 µM
GI50 (LOX IMVI melanoma): 4.7 µM
TGI (LOX IMVI melanoma): > 100 µM and 19.7 µM
GI50 (M14 melanoma): 2.55 µM
TGI (M14 melanoma): > 100 µM and 12.7 µM
GI50 (MOLT-4 leukemia): 3.59 µM
TGI (MOLT-4 leukemia): 43.6 µM
GI50 (NCI-H460 lung): 3.07 µM
TGI (NCI-H460 lung): > 100 µM and 16.8 µM
GI50 (SF-268 CNS): 5.58 µM
TGI (SF-268 CNS): > 100 µM
GI50 (SNB-19 CNS): 6.56 µM
TGI (SNB-19 CNS): > 100 µM
GI50 (TK-10 renal): 9.49 µM
TGI (TK-10 renal): > 100 µM and 58.4 µM

O=c1c([Se]c2coc3ccccc3c2=O)coc2ccccc12
TGI (CAKI-1 renal): 39.8 µM
TGI (HCT-116 colon): 12.3 µM
TGI (IGROV1 ovarian): 22.3 µM
TGI (LOX IMVI melanoma): 29.5 µM
TGI (M14 melanoma): 28.2 µM
TGI (MOLT-4 leukemia): 48.2 µM
TGI (NCI-H460 lung): 14 µM
TGI (SF-268 CNS): 33.8 µM
TGI (SNB-19 CNS): 27.4 µM
TGI (TK-10 renal): 31.6 µM

O=C(NNS(=O)(=O)c1cc(C(F)(F)F)cc(C(F)(F)F)c1)c1cnn(-c2ccc(Cl)cc2)c1C(F)(F)F
GI50 (CAKI-1 renal): 26.2 µM
TGI (CAKI-1 renal): 57.2 µM
GI50 (HCT-116 colon): 15.5 µM
TGI (HCT-116 colon): 29.6 µM
GI50 (IGROV1 ovarian): 17.4 µM
TGI (IGROV1 ovarian): 38.5 µM
GI50 (LOX IMVI melanoma): 17 µM
TGI (LOX IMVI melanoma): 36.5 µM
GI50 (M14 melanoma): 16.3 µM
TGI (M14 melanoma): 30.9 µM
GI50 (MOLT-4 leukemia): 19.9 µM
TGI (MOLT-4 leukemia): 52.3 µM
GI50 (NCI-H460 lung): 17.2 µM
TGI (NCI-H460 lung): 37.2 µM
GI50 (SF-268 CNS): 21.6 µM
TGI (SF-268 CNS): 52.6 µM
GI50 (SNB-19 CNS): 20.2 µM
TGI (SNB-19 CNS): 49.7 µM
GI50 (TK-10 renal): 24.3 µM
TGI (TK-10 renal): 54.7 µM
